In US9365588B2, “Benzoxazines as modulators of ion channels” (Vertex Pharmaceuticals Incorporated, priority 2011, dated 2016):

These compounds were tested against human NaV 1.7 (Homo sapiens, UniProt Q15858) (assay: E-VIPR optical membrane potential assay with electrical stimulation). Details: sodium channel inhibition; read-out: Binned Activity Data (IC50).
Assay type: cell-based
Method in brief: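 Membrane-potential read-out: background-subtracted 460 nm/580 nm ratio during a 9 s current-controlled stimulus, 400 Hz scan. Before stimulation, NaV1.7-HEK cells carried coumarin/oxonol dye and compound (final DMSO 0.625%) for 20–35 min at room temperature; tetracaine 125 μM served as positive control.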

Sequence of human NaV 1.7 (Q15858 whole entry): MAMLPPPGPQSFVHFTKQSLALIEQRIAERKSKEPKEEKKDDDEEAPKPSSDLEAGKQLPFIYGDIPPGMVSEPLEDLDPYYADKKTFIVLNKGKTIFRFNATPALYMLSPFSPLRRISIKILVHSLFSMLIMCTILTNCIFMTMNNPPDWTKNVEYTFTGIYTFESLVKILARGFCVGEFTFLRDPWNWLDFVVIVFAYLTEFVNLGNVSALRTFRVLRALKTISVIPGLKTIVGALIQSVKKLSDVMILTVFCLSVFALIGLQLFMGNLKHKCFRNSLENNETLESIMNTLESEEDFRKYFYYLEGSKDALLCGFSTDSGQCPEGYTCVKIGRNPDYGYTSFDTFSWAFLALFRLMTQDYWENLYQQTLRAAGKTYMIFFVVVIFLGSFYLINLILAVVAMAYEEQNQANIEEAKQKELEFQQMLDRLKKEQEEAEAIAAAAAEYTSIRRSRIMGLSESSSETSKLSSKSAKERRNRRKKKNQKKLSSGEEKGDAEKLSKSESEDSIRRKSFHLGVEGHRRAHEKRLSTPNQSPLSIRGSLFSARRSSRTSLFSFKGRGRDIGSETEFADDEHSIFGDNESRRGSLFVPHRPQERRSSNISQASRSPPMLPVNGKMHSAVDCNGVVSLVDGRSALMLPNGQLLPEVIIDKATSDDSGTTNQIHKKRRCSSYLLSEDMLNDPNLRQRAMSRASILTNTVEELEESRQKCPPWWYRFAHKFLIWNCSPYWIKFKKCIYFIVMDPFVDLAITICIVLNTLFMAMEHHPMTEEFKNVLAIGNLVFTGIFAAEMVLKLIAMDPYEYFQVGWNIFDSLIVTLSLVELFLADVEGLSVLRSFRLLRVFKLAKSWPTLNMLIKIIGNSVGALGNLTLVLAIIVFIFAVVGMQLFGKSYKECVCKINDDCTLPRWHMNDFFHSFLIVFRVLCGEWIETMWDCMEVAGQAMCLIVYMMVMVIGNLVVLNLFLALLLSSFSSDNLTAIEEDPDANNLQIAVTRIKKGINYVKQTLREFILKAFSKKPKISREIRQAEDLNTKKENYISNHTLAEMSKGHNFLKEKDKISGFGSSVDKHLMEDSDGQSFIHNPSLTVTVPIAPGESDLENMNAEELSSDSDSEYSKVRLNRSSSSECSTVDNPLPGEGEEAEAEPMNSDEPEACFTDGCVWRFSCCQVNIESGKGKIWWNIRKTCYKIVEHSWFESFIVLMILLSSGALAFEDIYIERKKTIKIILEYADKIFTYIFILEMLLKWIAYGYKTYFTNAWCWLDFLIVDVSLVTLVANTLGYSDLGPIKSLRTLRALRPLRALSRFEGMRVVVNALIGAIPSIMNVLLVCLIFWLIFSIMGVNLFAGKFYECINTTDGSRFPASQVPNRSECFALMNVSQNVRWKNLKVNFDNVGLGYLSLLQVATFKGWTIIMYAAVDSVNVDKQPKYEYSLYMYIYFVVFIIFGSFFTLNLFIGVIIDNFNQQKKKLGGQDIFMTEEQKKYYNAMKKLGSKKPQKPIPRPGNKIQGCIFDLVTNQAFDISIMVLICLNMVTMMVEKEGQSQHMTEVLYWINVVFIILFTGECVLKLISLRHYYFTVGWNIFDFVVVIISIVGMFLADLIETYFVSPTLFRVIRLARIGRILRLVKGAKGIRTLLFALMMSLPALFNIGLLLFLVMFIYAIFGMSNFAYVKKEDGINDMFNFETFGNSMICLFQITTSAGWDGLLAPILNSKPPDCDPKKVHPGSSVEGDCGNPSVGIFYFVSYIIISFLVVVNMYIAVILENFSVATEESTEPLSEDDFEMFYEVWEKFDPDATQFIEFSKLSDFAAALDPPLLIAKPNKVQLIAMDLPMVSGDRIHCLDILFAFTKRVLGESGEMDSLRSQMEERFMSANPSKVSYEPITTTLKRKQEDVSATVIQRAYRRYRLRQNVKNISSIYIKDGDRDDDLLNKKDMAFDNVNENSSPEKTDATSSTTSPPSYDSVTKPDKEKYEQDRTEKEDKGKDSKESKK

| SMILES | IC50 |
| --- | --- |
| COc1cc(F)c(F)cc1C(=O)N1CCC2(CC1)Oc1ccccc1-c1c2cnn1C [Compound 127] | > 5000 nM |
| CCc1ccc(C(=O)N2CCC3(CC2)Oc2cc(CN)ccc2-n2cccc23)cc1OC [Compound 137] | > 5000 nM |
| CC(C)C(O)c1ccc(C(=O)N2CCC3(CC2)Oc2ccccc2-n2c(C(F)(F)F)ccc23)cc1 (stereo not shown) [Compound 50] | ≤ 2000 nM |
| COc1cc(C(=O)N2CCC3(CC2)Oc2ccccc2-c2nn(C)cc23)ccc1OC(C)(C)C [Compound 307] | ≤ 2000 nM |
| Cn1ncc2c1-c1ccccc1OC21CCN(C(=O)c2cccnc2Oc2ccccc2)CC1 [Compound 138] | ≤ 2000 nM |
| COc1cc(C(=O)N2CCC3(CC2)Oc2ccccc2-n2cccc23)ccc1OC1CCCC1 [Compound 342] | ≤ 2000 nM |
| COc1cc(C(=O)N2CCC3(CC2)Oc2cc(F)ccc2-n2cccc23)ccc1O[C@@H]1CCC[C@H]1O [Compound 34] | ≤ 2000 nM |
| CC(C)S(=O)(=O)c1ccc(C(=O)N2CCC3(CC2)Oc2ccccc2-n2c(C(F)F)ccc23)cc1 [Compound 260] | 2000 to 5000 nM |
| O=C(c1ccc(C2(O)COC2)cc1)N1CCC2(CC1)Oc1ccccc1-n1c(C(F)(F)F)ccc12 [Compound 9] | ≤ 2000 nM |
| Cn1ncc2c1-c1ccccc1OC21CCN(C(=O)c2cccc3ncn(C)c23)CC1 [Compound 43] | 2000 to 5000 nM |
| N#Cc1ccc2n1-c1ccccc1OC21CCN(C(=O)c2cccc(F)c2OC(F)F)CC1 [Compound 125] | ≤ 2000 nM |
| Cn1ncc2c1-c1ccccc1OC21CCN(C(=O)c2ccc(S(=O)(=O)NC3CC3)cc2)CC1 [Compound 243] | ≤ 2000 nM |
| CCCOc1ccc(C(=O)N2CCC3(CC2)Oc2cc(Cl)ccc2-n2cccc23)cc1C(F)(F)F [Compound 269] | ≤ 2000 nM |
| COc1ccc(C(=O)N2CCC3(CC2)Oc2ccccc2-c2c3cnn2C)c(OC(C)C)c1 [Compound 205] | ≤ 2000 nM |
| COc1cccc(C)c1C(=O)N1CCC2(CC1)Oc1ccccc1-c1c2cnn1C [Compound 259] | ≤ 2000 nM |
| CCCOc1ccc(C(=O)N2CCC3(CC2)Oc2ccccc2-c2c3cnn2C)cc1 [Compound 128] | ≤ 2000 nM |
| Cc1cc(C(=O)N2CCC3(CC2)Oc2ccccc2-n2ccc(C)c23)ccc1OC(C)C [Compound 315] | ≤ 2000 nM |
| COc1cc(S(C)(=O)=O)ccc1C(=O)N1CCC2(CC1)Oc1ccccc1-c1c2cnn1C [Compound 93] | 2000 to 5000 nM |
| CC(C)(CO)c1ccc(C(=O)N2CCC3(CC2)Oc2cc(Cl)ccc2-n2cccc23)cc1F [Compound 103] | ≤ 2000 nM |

| SMILES | IC50 |
| --- | --- |
| Cn1ncc2c1-c1ccccc1OC21CCN(C(=O)c2cccc3c2OC(F)(F)O3)CC1 [Compound 345] | ≤ 2000 nM |
| Cn1ncc2c1-c1ccccc1OC21CCN(C(=O)c2ccccc2NS(C)(=O)=O)CC1 [Compound 319] | 2000 to 5000 nM |
| CC(C)Oc1ccc(C(=O)N2CCC3(CC2)Oc2ccccc2-c2nn(C)cc23)c(F)c1 [Compound 246] | ≤ 2000 nM |
| COc1ccc(C(=O)N2CCC3(CC2)Oc2ccccc2-c2c3cnn2C)cc1C(F)(F)F [Compound 143] | 2000 to 5000 nM |
| COc1cc(OC(F)(F)F)ccc1C(=O)N1CCC2(CC1)Oc1ccccc1-c1c2cnn1C [Compound 121] | ≤ 2000 nM |
| CCOc1ccc(C(=O)N2CCC3(CC2)Oc2ccccc2-c2c3cnn2C)c(OCC)c1C [Compound 13] | ≤ 2000 nM |
| CCOc1cc(C(=O)N2CCC3(CC2)Oc2ccccc2-c2nn(C)cc23)ccc1OC [Compound 98] | ≤ 2000 nM |
| COc1cc(OC)c(C(=O)N2CCC3(CC2)Oc2ccccc2-c2nn(C)cc23)cc1OC [Compound 240] | 2000 to 5000 nM |
| Cn1ncc2c1-c1ccccc1OC21CCN(C(=O)c2csc(-c3ccccc3)n2)CC1 [Compound 331] | > 5000 nM |
| CNC(=O)c1ccc2n1-c1ccc(Cl)cc1OC21CCN(C(=O)c2ccc(OC(C)C)c(C)c2)CC1 [Compound 245] | 2000 to 5000 nM |
| CC(=O)c1ccc2n1-c1ccccc1OC21CCN(C(=O)c2ccc(OC(C)C)c(C)c2)CC1 [Compound 171] | ≤ 2000 nM |
| COc1cc(C(=O)N2CCC3(CC2)Oc2ccccc2-c2c3cnn2C)ccc1O [Compound 396] | ≤ 2000 nM |
| COc1ccccc1C(=O)N1CCC2(CC1)Oc1cc(Cl)ccc1-n1cccc12 [Compound 81] | ≤ 2000 nM |
| Cc1nc2cccc(C(=O)N3CCC4(CC3)Oc3ccccc3-c3c4cnn3C)c2o1 [Compound 224] | ≤ 2000 nM |
| Nc1nc2ccc(C(=O)N3CCC4(CC3)Oc3ccccc3-n3c(C(F)(F)F)ccc34)cc2s1 [Compound 8] | 2000 to 5000 nM |
| Cn1ncc2c1-c1ccccc1OC21CCN(C(=O)c2ccccc2OC2CCOCC2)CC1 [Compound 292] | ≤ 2000 nM |
| COc1cc(C(=O)N2CCC3(CC2)Oc2cc(Cl)ccc2-n2cccc23)ccc1OCC(C)(C)OC [Compound 199] | ≤ 2000 nM |
| COc1cc(C(=O)N2CCC3(CC2)Oc2cc(Cl)ccc2-n2cccc23)ccc1OCC(N)=O [Compound 373] | ≤ 2000 nM |

Next, values leading:

| IC50 | SMILES |
| --- | --- |
| ≤ 2000 nM | COCCOc1ccc(C(=O)N2CCC3(CC2)Oc2ccccc2-c2c3cnn2C)cc1OC [Compound 420] |
| ≤ 2000 nM | N#Cc1ccc2n1-c1ccccc1OC21CCN(C(=O)c2ccccc2C(F)F)CC1 [Compound 401] |
| ≤ 2000 nM | Cn1ncc2c1-c1ccccc1OC21CCN(C(=O)c2ccc(OC(F)F)cc2OC(F)F)CC1 [Compound 515] |
| 2000 to 5000 nM | CC(C)(O)c1ccc(C(=O)N2CCC3(CC2)Oc2ccccc2-n2c3ccc2S(C)(=O)=O)cc1 [Compound 607] |
| ≤ 2000 nM | COc1cc(C(=O)N2CCC3(CC2)Oc2cc(F)ccc2-n2cccc23)ccc1C(C)(C)C [Compound 855] |
| ≤ 2000 nM | CCn1ncc2c1-c1ccccc1OC21CCN(C(=O)c2ccc(S(C)(=O)=O)c(C)c2)CC1 [Compound 582] |
| ≤ 2000 nM | CC(C)(CO)c1ccc(C(=O)N2CCC3(CC2)Oc2ccccc2-n2c(C#N)ccc23)cc1 [Compound 810] |
| 2000 to 5000 nM | Cn1c(C(=O)N2CCC3(CC2)Oc2cc(Cl)ccc2-n2cccc23)cccc1=O [Compound 718] |
| 2000 to 5000 nM | Cc1ccc(C(=O)N2CCC3(CC2)Oc2ccccc2-c2c3cnn2C)cc1C [Compound 701] |
| ≤ 2000 nM | Cn1ncc2c1-c1ccccc1OC21CCN(C(=O)c2ccc(C(C)(C)O)cc2)CC1 [Compound 506] |
| ≤ 2000 nM | COc1ccc(C(=O)N2CCC3(CC2)Oc2ccccc2-c2c3cnn2C)cc1OC [Compound 620] |
| 2000 to 5000 nM | CCc1ccc(C(=O)N2CCC3(CC2)Oc2ccccc2-n2c(C(F)(F)F)ccc23)nc1 [Compound 564] |
| ≤ 2000 nM | CC(C)S(=O)(=O)c1ccc(C(=O)N2CCC3(CC2)Oc2cc(CO)ccc2-n2c(C#N)ccc23)cc1 [Compound 431] |
| ≤ 2000 nM | COc1cc(C(=O)N2CCC3(CC2)Oc2cc(Cl)ccc2-n2cccc23)ccc1OC[C@H]1COC(C)(C)O1 [Compound 759] |
| ≤ 2000 nM | Cc1cc(C(=O)N2CCC3(CC2)Oc2cc(Cl)ccc2-n2cccc23)ccc1C(C)(C)O [Compound 792] |
| ≤ 2000 nM | Cn1ncc2c1-c1ccccc1OC21CCN(C(=O)c2ccc3c(ccn3C)c2)CC1 [Compound 861] |
| 2000 to 5000 nM | CC(C)(C)[S@@+]([O-])c1ccc(C(=O)N2CCC3(CC2)Oc2ccccc2-n2c(C(F)(F)F)ccc23)cc1 [Compound 880] |
| ≤ 2000 nM | COc1cc(C(=O)N2CCC3(CC2)Oc2ccc(F)cc2-c2nn(C)cc23)ccc1OC(C)C [Compound 435] |
| ≤ 2000 nM | CCCOc1ccc(C(=O)N2CCC3(CC2)Oc2ccccc2-n2c(C)ccc23)cc1C(F)(F)F [Compound 818] |
| ≤ 2000 nM | Cc1cc(C(=O)N2CCC3(CC2)Oc2cccc(C)c2-n2c(C#N)ccc23)ccc1OC(C)C [Compound 490] |

| IC50 | SMILES |
| --- | --- |
| ≤ 2000 nM | COc1ccc2c(c1)-c1c(cnn1C)C1(CCN(C(=O)c3ccc(OC(C)C)c(C)c3)CC1)O2 [Compound 822] |
| ≤ 2000 nM | Cn1ncc2c1-c1ccccc1OC21CCN(C(=O)c2ccccc2OCCO)CC1 [Compound 771] |
| 2000 to 5000 nM | CC(C)(CO)S(=O)(=O)c1ccc(C(=O)N2CCC3(CC2)Oc2ccccc2-n2c(C(F)(F)F)ccc23)cc1 [Compound 685] |
| ≤ 2000 nM | Cn1ncc2c1-c1ccc(Cl)cc1OC21CCN(C(=O)c2ccccc2OC(F)F)CC1 [Compound 623] |
| ≤ 2000 nM | COc1cc(C(C)(C)O)ccc1C(=O)N1CCC2(CC1)Oc1ccccc1-c1c2cnn1C [Compound 637] |
| ≤ 2000 nM | CC(C)n1ncc2c1-c1ccccc1OC21CCN(C(=O)c2ccccc2OC(F)F)CC1 [Compound 705] |
| ≤ 2000 nM | CC(C)CS(=O)(=O)c1ccc(C(=O)N2CCC3(CC2)Oc2ccccc2-n2c(C(F)(F)F)ccc23)nc1 [Compound 874] |
| ≤ 2000 nM | Cn1ncc2c1-c1ccccc1OC21CCN(C(=O)c2ccc(S(=O)(=O)C(F)F)cc2)CC1 [Compound 626] |
| ≤ 2000 nM | Cn1ncc2c1-c1ccccc1OC21CCN(C(=O)c2cccc3c2CC(C)(C)O3)CC1 [Compound 860] |
| ≤ 2000 nM | CCOc1c(F)cccc1C(=O)N1CCC2(CC1)Oc1ccccc1-n1c(C#N)ccc12 [Compound 769] |
| ≤ 2000 nM | Cn1ncc2c1-c1ccccc1OC21CCN(C(=O)c2ccccc2OCC(F)(F)F)CC1 [Compound 593] |
| ≤ 2000 nM | O=C(c1ccc(C(O)C2CC2)cc1)N1CCC2(CC1)Oc1ccccc1-n1c(C(F)(F)F)ccc12 (stereo not shown) [Compound 815] |
| ≤ 2000 nM | COc1cccc2c(C(=O)N3CCC4(CC3)Oc3ccccc3-c3c4cnn3C)c[nH]c12 [Compound 460] |
| ≤ 2000 nM | Cc1cc(C(=O)N2CCC3(CC2)Oc2ccccc2-c2c3cnn2C)ccc1S(=O)(=O)C(C)C [Compound 543] |
| ≤ 2000 nM | COCCn1ccc(C(=O)N2CCC3(CC2)Oc2cc(Cl)ccc2-n2cccc23)cc1=O [Compound 552] |
| ≤ 2000 nM | Cc1cc(C(=O)N2CCC3(CC2)Oc2cc(Cl)ccc2-n2cccc23)ccc1OC(C)C [Compound 737] |
| 2000 to 5000 nM | Cc1c(CO)cccc1C(=O)N1CCC2(CC1)Oc1ccccc1-c1c2cnn1C [Compound 746] |
| ≤ 2000 nM | COCCOc1cc(F)c(C(=O)N2CCC3(CC2)Oc2ccccc2-n2cccc23)cc1OC [Compound 532] |
| ≤ 2000 nM | CCn1ncc2c1-c1cc(F)ccc1OC21CCN(C(=O)c2ccccc2OC(F)F)CC1 [Compound 446] |
